Experimental data from the Kinase Knowledgebase extract (Sharma et al. 2016).
Where “and” joins values, the source holds several entries; their conditions need not be identical. Equal values may be shown once.

Columns and labels:
EGFR (human) [1] = molecular target: EGFR (human) (UniProt P00533)
EGFR (human) [2] = molecular target: EGFR (human) (UniProt P00533); settings: a431

Chain of EGFR (human) (P00533 whole entry, looked up): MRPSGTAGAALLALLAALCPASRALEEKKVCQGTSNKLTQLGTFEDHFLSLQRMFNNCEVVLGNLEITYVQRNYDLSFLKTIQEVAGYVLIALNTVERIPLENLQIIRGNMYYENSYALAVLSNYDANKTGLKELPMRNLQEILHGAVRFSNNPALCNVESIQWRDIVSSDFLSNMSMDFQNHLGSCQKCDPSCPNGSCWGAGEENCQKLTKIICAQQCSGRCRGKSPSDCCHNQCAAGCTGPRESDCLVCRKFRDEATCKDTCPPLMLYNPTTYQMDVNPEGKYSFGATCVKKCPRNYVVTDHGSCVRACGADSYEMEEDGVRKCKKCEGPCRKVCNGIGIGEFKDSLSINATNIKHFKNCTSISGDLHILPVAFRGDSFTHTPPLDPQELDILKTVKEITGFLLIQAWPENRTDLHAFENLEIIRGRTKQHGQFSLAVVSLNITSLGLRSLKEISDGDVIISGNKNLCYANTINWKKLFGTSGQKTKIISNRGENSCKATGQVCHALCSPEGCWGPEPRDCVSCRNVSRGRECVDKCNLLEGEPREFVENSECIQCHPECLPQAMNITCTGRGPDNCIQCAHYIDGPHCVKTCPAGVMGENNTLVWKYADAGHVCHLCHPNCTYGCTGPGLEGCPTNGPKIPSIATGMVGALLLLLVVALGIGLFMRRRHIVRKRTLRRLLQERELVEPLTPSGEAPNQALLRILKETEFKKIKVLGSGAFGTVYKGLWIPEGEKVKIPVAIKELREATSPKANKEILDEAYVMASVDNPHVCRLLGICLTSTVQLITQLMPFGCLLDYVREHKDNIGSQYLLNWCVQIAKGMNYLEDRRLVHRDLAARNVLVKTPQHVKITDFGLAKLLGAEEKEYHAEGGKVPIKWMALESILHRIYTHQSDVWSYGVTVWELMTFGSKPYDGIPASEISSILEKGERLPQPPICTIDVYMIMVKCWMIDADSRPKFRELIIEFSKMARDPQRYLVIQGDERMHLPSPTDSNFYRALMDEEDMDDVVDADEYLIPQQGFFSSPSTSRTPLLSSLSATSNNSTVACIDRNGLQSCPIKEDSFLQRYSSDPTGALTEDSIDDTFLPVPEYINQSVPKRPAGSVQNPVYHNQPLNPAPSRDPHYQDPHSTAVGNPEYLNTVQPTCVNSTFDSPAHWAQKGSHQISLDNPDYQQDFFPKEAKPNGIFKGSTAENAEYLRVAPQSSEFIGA

Row | SMILES | IC50 (EGFR (human) [1]) | IC50 (EGFR (human) [2]) [nM]
1 | CS(=O)(=O)CCNCc1cc(-c2ccc3ncnc(Nc4ccc(OCc5cccc(F)c5)c(Cl)c4)c3c2)c[nH]1 | 11 nM | 250
2 | OCCN1CCOC(Cn2ccc(-c3ccc4ncnc(Nc5ccc6c(cnn6Cc6cccc(F)c6)c5)c4c3)c2)C1 (stereo not given) | 205 nM | 477
3 | CN1CCN(CCNC(=O)c2cn(-c3ccc4ncnc(Nc5ccc(OCc6cccc(F)c6)c(Cl)c5)c4c3)cc2CCO)CC1 | 7.5 nM | 10
4 | CS(=O)(=O)CCNC1CCN(C[C@@H](O)Cn2ccc(-c3ccc4ncnc(Nc5ccc(OCc6cccc(F)c6)c(Cl)c5)c4c3)c2)CC1 | 11 nM | 3620
5 | Fc1cccc(COc2ccc(Nc3ncnc4ccc(-c5ccn(CCCN6CCOCC6)c5)cc34)cc2Cl)c1 | 39 nM | 1370
6 | CS(=O)(=O)N1CCOC(Cn2ccc(-c3ccc4ncnc(Nc5ccc6c(cnn6Cc6cccc(F)c6)c5)c4c3)c2)C1 (stereo not given) | 257 nM | 243
7 | Fc1cccc(Cn2ncc3cc(Nc4ncnc5ccc(-c6ccn(CC7CN(CCN8CCOCC8)CCO7)c6)cc45)ccc32)c1 (stereo not given) | 276 nM | 1300
8 | Fc1cccc(COc2ccc(Nc3ncnc4ccc(-n5ccc(CNCCN6CCOCC6)c5)cc34)cc2Cl)c1 | 3 nM | 20
9 | O=C(Cn1ccc(-c2ccc3ncnc(Nc4ccc(OCc5cccc(F)c5)c(Cl)c4)c3c2)c1)N1CCN(CC2CC2)CC1 | 443 nM | 1980
10 | Cc1ccc(Oc2ccc(Nc3ncnc4ccc(-c5cc[nH]c5)cc34)cc2C)cn1 | 387 nM | 90
11 | Fc1cccc(COc2ccc(Nc3ncnc4ccc(-n5cc6c(c5)C(=NOCCN5CCOCC5)CC6)cc34)cc2Cl)c1 | 86 nM and 94 nM | 20
12 | OC(CN1CC=CC1)Cn1ccc(-c2ccc3ncnc(Nc4ccc(OCc5cccc(F)c5)c(Cl)c4)c3c2)c1 (stereo not given) | 22 nM | 431
13 | CCN(CC)CCNCc1ccc(-c2ccc3ncnc(Nc4ccc(OCc5cccc(F)c5)c(Cl)c4)c3c2)[nH]1 | 18 nM | 1450
14 | O=C1OCCc2cn(-c3ccc4ncnc(Nc5ccc(OCc6ccccn6)c(Cl)c5)c4c3)cc21 | 8 nM | 810
15 | Fc1cccc(COc2ccc(Nc3ncnc4ccc(-c5ccn(CCc6ccncc6)c5)cc34)cc2Cl)c1 | 166 nM | 874
16 | N[C@H]1CCCN(C(=O)Cn2ccc(-c3ccc4ncnc(Nc5ccc(OCc6cccc(F)c6)c(Cl)c5)c4c3)c2)C1 | 38 nM | 729
17 | Fc1ccc(Nc2ncnc3ccc(-c4ccc[nH]4)cc23)cc1Cl | 11 nM | 21
18 | O=C(Cn1ccc(-c2ccc3ncnc(Nc4ccc(OCc5cccc(F)c5)c(Cl)c4)c3c2)c1)N1CCNCC1 | 41 nM | 661
19 | Cn1cccc1-c1ccc2ncnc(Nc3ccc(OCc4cccc(F)c4)c(Cl)c3)c2c1 | 6 nM | 136
20 | OC1CCN(CC(O)Cn2ccc(-c3ccc4ncnc(Nc5ccc6c(cnn6Cc6cccc(F)c6)c5)c4c3)c2)CC1 (stereo not given) | 24 nM | 1560
21 | Fc1cccc(COc2ccc(Nc3ncnc4ccc(-c5ccn(C[C@H]6CN7CCC[C@@H]7CO6)c5)cc34)cc2Cl)c1 | 74 nM | 1320
22 | O[C@H](CN1CCOCC1)Cn1ccc(-c2ccc3ncnc(Nc4ccc(OCc5cccc(F)c5)c(Cl)c4)c3c2)c1 | 18 nM | 511
23 | Fc1cccc(COc2ccc(Nc3ncnc4ccc(-n5cc(CNCCN6CCCC6)c(C(F)(F)F)c5)cc34)cc2Cl)c1 | 55 nM | 1040
24 | Fc1cccc(COc2ccc(Nc3ncnc4ccc(-c5ccn(Cc6ccncc6)c5)cc34)cc2Cl)c1 | 80 nM | 49
25 | O=C(Cn1ccc(-c2ccc3ncnc(Nc4ccc(OCc5cccc(F)c5)c(Cl)c4)c3c2)c1)N1CCOCC1 | 22 nM | 770
